Measured values reported in publication PMC11062894, “Protein-based bandpass filters for controlling cellular signaling with chemical inputs” (Nature Chemical Biology, 2023).
Values joined by “and” are separate entries in the source; they are usually repeats but may differ in a detail not shown here. Equal values may be shown once.

Test system: GEMS receptors with CBPvene (Bcl2–LD3 and Bcl2high variants), STAT3-driven SEAP in HEK293T cells
Assay: GEMS SEAP reporter assay, CBPvene (Bcl2high, LD3-v and Bcl2-v variants) with venetoclax
Assay type: cell-based
Conditions: for SEAP, replicate values: Supplementary Figure 8e
[1] = SuppFigure 8b, LD3, venetoclax 10 nM
[2] = SuppFigure 8b, LD3, venetoclax 31.6 nM
[3] = SuppFigure 8b, LD3, venetoclax 100 nM
[4] = SuppFigure 8b, LD3, venetoclax 316 nM
[5] = SuppFigure 8b, LD3, venetoclax 1000 nM
[6] = SuppFigure 8b, LD3, venetoclax 3160 nM
[7] = SuppFigure 8b, LD3, venetoclax 10000 nM
[8] = SuppFigure 8b, LD3v1, venetoclax 1 nM
[9] = SuppFigure 8b, LD3v1, venetoclax 3.16 nM
[10] = SuppFigure 8b, LD3v1, venetoclax 10 nM
[11] = SuppFigure 8b, LD3v1, venetoclax 31.6 nM
[12] = SuppFigure 8b, LD3v1, venetoclax 100 nM
[13] = SuppFigure 8b, LD3v1, venetoclax 316 nM
[14] = SuppFigure 8b, LD3v1, venetoclax 1000 nM
[15] = SuppFigure 8b, LD3v1, venetoclax 3160 nM
[16] = SuppFigure 8b, LD3v1, venetoclax 10000 nM
[17] = SuppFigure 8b, LD3v2, venetoclax 1 nM
[18] = SuppFigure 8b, LD3v2, venetoclax 3.16 nM
[19] = SuppFigure 8b, LD3v2, venetoclax 10 nM
[20] = SuppFigure 8b, LD3v2, venetoclax 31.6 nM
[21] = SuppFigure 8b, LD3v2, venetoclax 100 nM
[22] = SuppFigure 8b, LD3v2, venetoclax 316 nM
[23] = SuppFigure 8b, LD3v2, venetoclax 1000 nM
[24] = SuppFigure 8b, LD3v2, venetoclax 3160 nM
[25] = SuppFigure 8b, LD3v2, venetoclax 10000 nM
[26] = SuppFigure 8b, LD3v3, venetoclax 1 nM
[27] = SuppFigure 8b, LD3v3, venetoclax 3.16 nM
[28] = SuppFigure 8b, LD3v3, venetoclax 10 nM
[29] = SuppFigure 8b, LD3v3, venetoclax 31.6 nM
[30] = SuppFigure 8b, LD3v3, venetoclax 100 nM
[31] = SuppFigure 8b, LD3v3, venetoclax 316 nM
[32] = SuppFigure 8b, LD3v3, venetoclax 1000 nM
[33] = SuppFigure 8b, LD3v3, venetoclax 3160 nM
[34] = SuppFigure 8b, LD3v3, venetoclax 10000 nM
[35] = SuppFigure 8c, LD3, venetoclax 1 nM
[36] = SuppFigure 8c, LD3, venetoclax 3.16 nM
[37] = SuppFigure 8c, LD3, venetoclax 10 nM
[38] = SuppFigure 8c, LD3, venetoclax 31.6 nM
[39] = SuppFigure 8c, LD3, venetoclax 100 nM
[40] = SuppFigure 8c, LD3, venetoclax 316 nM
[41] = SuppFigure 8c, LD3, venetoclax 1000 nM
[42] = SuppFigure 8c, LD3, venetoclax 3160 nM
[43] = SuppFigure 8c, LD3, venetoclax 10000 nM
[44] = SuppFigure 8c, LD3v1, venetoclax 1 nM
[45] = SuppFigure 8c, LD3v1, venetoclax 3.16 nM
[46] = SuppFigure 8c, LD3v1, venetoclax 10 nM
[47] = SuppFigure 8c, LD3v1, venetoclax 31.6 nM
[48] = SuppFigure 8c, LD3v1, venetoclax 100 nM
[49] = SuppFigure 8c, LD3v1, venetoclax 316 nM
[50] = SuppFigure 8c, LD3v1, venetoclax 1000 nM
[51] = SuppFigure 8c, LD3v1, venetoclax 3160 nM
[52] = SuppFigure 8c, LD3v1, venetoclax 10000 nM
[53] = SuppFigure 8c, LD3v2, venetoclax 1 nM
[54] = SuppFigure 8c, LD3v2, venetoclax 3.16 nM
[55] = SuppFigure 8c, LD3v2, venetoclax 10 nM
[56] = SuppFigure 8c, LD3v2, venetoclax 31.6 nM
[57] = SuppFigure 8c, LD3v2, venetoclax 100 nM
[58] = SuppFigure 8c, LD3v2, venetoclax 316 nM
[59] = SuppFigure 8c, LD3v2, venetoclax 1000 nM
[60] = SuppFigure 8c, LD3v2, venetoclax 3160 nM
[61] = SuppFigure 8c, LD3v2, venetoclax 10000 nM
[62] = SuppFigure 8c, LD3v3, venetoclax 1 nM
[63] = SuppFigure 8c, LD3v3, venetoclax 3.16 nM
[64] = SuppFigure 8c, LD3v3, venetoclax 10 nM
[65] = SuppFigure 8c, LD3v3, venetoclax 31.6 nM
[66] = SuppFigure 8c, LD3v3, venetoclax 100 nM
[67] = SuppFigure 8c, LD3v3, venetoclax 316 nM
[68] = SuppFigure 8c, LD3v3, venetoclax 1000 nM
[69] = SuppFigure 8c, LD3v3, venetoclax 3160 nM
[70] = SuppFigure 8c, LD3v3, venetoclax 10000 nM

Which results are given for `CC1(C)CCC(CN2CCN(c3ccc(C(=O)NS(=O)(=O)c4ccc(NCC5CCOCC5)c([N+](=O)[O-])c4)c(Oc4cnc5[nH]ccc5c4)c3)CC2)=C(c2ccc(Cl)cc2)C1` [Venetoclax]?
Normalized data (SEAP) [1]: 4.498; Raw data (SEAP) [1]: 18.9052; Normalized data (SEAP) [2]: 14.8552; Raw data (SEAP) [2]: 62.4429; Normalized data (SEAP) [3]: 43.1759; Raw data (SEAP) [3]: 181.487; Normalized data (SEAP) [4]: 91.7223; Raw data (SEAP) [4]: 385.549; Normalized data (SEAP) [5]: 100; Raw data (SEAP) [5]: 420.344; Normalized data (SEAP) [6]: 92.3499; Raw data (SEAP) [6]: 388.188; Normalized data (SEAP) [7]: 51.2329; Raw data (SEAP) [7]: 215.355; Normalized data (SEAP) [8]: 9.345; Raw data (SEAP) [8]: 17.9682; Normalized data (SEAP) [9]: 9.034; Raw data (SEAP) [9]: 17.3705; Normalized data (SEAP) [10]: 10.4886; Raw data (SEAP) [10]: 20.1681; Normalized data (SEAP) [11]: 19.5956; Raw data (SEAP) [11]: 37.6794; Normalized data (SEAP) [12]: 44.2027; Raw data (SEAP) [12]: 84.9952; Normalized data (SEAP) [13]: 100; Raw data (SEAP) [13]: 192.285; Normalized data (SEAP) [14]: 87.7314; Raw data (SEAP) [14]: 168.695; Normalized data (SEAP) [15]: 49.2054; Raw data (SEAP) [15]: 94.6147; Normalized data (SEAP) [16]: 19.8616; Raw data (SEAP) [16]: 38.191; Normalized data (SEAP) [17]: 3.604; Raw data (SEAP) [17]: 12.0656; Normalized data (SEAP) [18]: 3.9805; Raw data (SEAP) [18]: 13.3245; Normalized data (SEAP) [19]: 4.834; Raw data (SEAP) [19]: 16.18; Normalized data (SEAP) [20]: 12.8068; Raw data (SEAP) [20]: 42.87; Normalized data (SEAP) [21]: 33.7173; Raw data (SEAP) [21]: 112.867; Normalized data (SEAP) [22]: 77.9659; Raw data (SEAP) [22]: 260.986; Normalized data (SEAP) [23]: 100; Raw data (SEAP) [23]: 334.744; Normalized data (SEAP) [24]: 66.077; Raw data (SEAP) [24]: 221.189; Normalized data (SEAP) [25]: 30.9558; Raw data (SEAP) [25]: 103.623; Normalized data (SEAP) [26]: 59.1038; Raw data (SEAP) [26]: 11.2669; Normalized data (SEAP) [27]: 71.809; Raw data (SEAP) [27]: 13.6889; Normalized data (SEAP) [28]: 61.7452; Raw data (SEAP) [28]: 11.7704; Normalized data (SEAP) [29]: 69.7498; Raw data (SEAP) [29]: 13.2963; Normalized data (SEAP) [30]: 80.5519; Raw data (SEAP) [30]: 15.3555; Normalized data (SEAP) [31]: 100; Raw data (SEAP) [31]: 19.0629; Normalized data (SEAP) [32]: 89.5017; Raw data (SEAP) [32]: 17.0616; Normalized data (SEAP) [33]: 75.6488; Raw data (SEAP) [33]: 14.4208; Normalized data (SEAP) [34]: 59.7156; Raw data (SEAP) [34]: 11.3835; Normalized data (SEAP) [35]: 3.575; Raw data (SEAP) [35]: 13.7218; Normalized data (SEAP) [36]: 3.97; Raw data (SEAP) [36]: 15.2365; Normalized data (SEAP) [37]: 6.118; Raw data (SEAP) [37]: 23.4789; Normalized data (SEAP) [38]: 19.9083; Raw data (SEAP) [38]: 76.4036; Normalized data (SEAP) [39]: 50.1718; Raw data (SEAP) [39]: 192.548; Normalized data (SEAP) [40]: 93.753; Raw data (SEAP) [40]: 359.804; Normalized data (SEAP) [41]: 100; Raw data (SEAP) [41]: 383.778; Normalized data (SEAP) [42]: 77.866; Raw data (SEAP) [42]: 298.833; Normalized data (SEAP) [43]: 35.1914; Raw data (SEAP) [43]: 135.057; Normalized data (SEAP) [44]: 13.8401; Raw data (SEAP) [44]: 15.4633; Normalized data (SEAP) [45]: 14.8573; Raw data (SEAP) [45]: 16.5999; Normalized data (SEAP) [46]: 15.6025; Raw data (SEAP) [46]: 17.4324; Normalized data (SEAP) [47]: 28.6773; Raw data (SEAP) [47]: 32.0407; Normalized data (SEAP) [48]: 48.5828; Raw data (SEAP) [48]: 54.2809; Normalized data (SEAP) [49]: 100; Raw data (SEAP) [49]: 111.729; Normalized data (SEAP) [50]: 98.9424; Raw data (SEAP) [50]: 110.547; Normalized data (SEAP) [51]: 75.2543; Raw data (SEAP) [51]: 84.0806; Normalized data (SEAP) [52]: 21.4009; Raw data (SEAP) [52]: 23.9109; Normalized data (SEAP) [53]: 4.916; Raw data (SEAP) [53]: 14.375; Normalized data (SEAP) [54]: 5.386; Raw data (SEAP) [54]: 15.7505; Normalized data (SEAP) [55]: 6.285; Raw data (SEAP) [55]: 18.3792; Normalized data (SEAP) [56]: 18.3149; Raw data (SEAP) [56]: 53.5545; Normalized data (SEAP) [57]: 44.7805; Raw data (SEAP) [57]: 130.943; Normalized data (SEAP) [58]: 92.9232; Raw data (SEAP) [58]: 271.716; Normalized data (SEAP) [59]: 100; Raw data (SEAP) [59]: 292.41; Normalized data (SEAP) [60]: 75.7485; Raw data (SEAP) [60]: 221.496; Normalized data (SEAP) [61]: 31.6477; Raw data (SEAP) [61]: 92.541; Normalized data (SEAP) [62]: 39.2835; Raw data (SEAP) [62]: 15.066; Normalized data (SEAP) [63]: 40.4811; Raw data (SEAP) [63]: 15.5253; Normalized data (SEAP) [64]: 41.5277; Raw data (SEAP) [64]: 15.9266; Normalized data (SEAP) [65]: 52.0376; Raw data (SEAP) [65]: 19.9574; Normalized data (SEAP) [66]: 75.9664; Raw data (SEAP) [66]: 29.1345; Normalized data (SEAP) [67]: 100; Raw data (SEAP) [67]: 38.3518; Normalized data (SEAP) [68]: 67.7678; Raw data (SEAP) [68]: 25.9902; Normalized data (SEAP) [69]: 51.723; Raw data (SEAP) [69]: 19.8367; Normalized data (SEAP) [70]: 31.0619; Raw data (SEAP) [70]: 11.9128; SEAP, replicate values (CBPVene-v5-LD3v1, venetoclax 100 nM): 98.3781 and 87.1331 and 45.1145; SEAP, replicate values (CBPVene-v5-LD3v1, venetoclax 3160 nM): 13.0779; SEAP, replicate values (CBPVene-v5, venetoclax 100 nM): 341.722 and 335.341; Raw data Figure 5c, CBPVene-v4-LD3v1 (SEAP reporter raw value, single replicate) (Venetoclax 10000 nM, construct CBPVene-v4-LD3v1, three replicate columns): 307.085 and 269.935 and 317.486; Raw data Figure 5c, CBPVene-v4 (SEAP reporter raw value, single replicate) (Venetoclax 10000 nM, construct CBPVene-v4, three replicate columns): 10.3692 and 8.227 and 12.3711
